{
  "source": "patent US7699995B2",
  "about": "“Water treatment method” (priority 2006, dated 2010)",
  "key": {"Pseudomonas diminuta #99": {"test_system": "Pseudomonas diminuta #99", "assay": "MIC at pH 7.1 or pH 9.0, half strength TSB", "format": "cell-based", "details": "three days", "description": "(§1) Minimum inhibitory concentration (MIC) studies were conducted to determine the lowest level of biocide required to inhibit growth of bacteria and fungi. Tests were conducted in 96-well microtiter plates. Biocides were added to growth media in the plates and serially diluted to obtain a range of concentrations. Tests were conducted in one-half strength trypticase soy broth (TSB; adjusted to pH 7.1 or pH 9.0). Bacteria and fungi were added to samples at 10^6 colony forming units per ml and incubated at 30° C. for three days. MIC values were determined visually on a growth no-growth basis."}, "Aspergillus niger #128": {"test_system": "Aspergillus niger #128", "assay": "MIC at pH 7.1 or pH 9.0, half strength TSB", "format": "cell-based", "details": "three days", "description": "as §1"}, "Streptomyces sp. #130": {"test_system": "Streptomyces sp. #130", "assay": "MIC at pH 7.1 or pH 9.0, half strength TSB", "format": "cell-based", "details": "three days", "description": "as §1"}, "[1]": {"assay": "Stability in buffered water at various pH and temperatures (HPLC)", "format": "physicochemical", "description": "Biocides were added to buffer solutions and stability was tested at 22° and 50° C. using HPLC to measure biocide concentration at 0 time, 21 days, 43 days, and 88-90 days. Biocide stability was determined in the following buffer solutions: pH2, 0.01M HCl; pH6, 0.1M KH2PO4; pH8, 0.025M borate; pH10, 0.025M borate; pH12, 0.05M Na2HPO4. Biocide concentrations tested were 100 ppm MI, 200 ppm BIT, 44 ppm CMI."}, "[2]": {"test_system": "natural, resident populations of Mycobacterium", "assay": "Eradication of mycobacteria in naturally contaminated in-use metalworking fluids", "format": "cell-based", "details": "for No. of Fluids with ≧99% Kill (2-log reduction): of six fluids, 48 hours", "description": "A comparative study was conducted evaluating six metalworking fluid biocides versus natural, resident populations of Mycobacterium from six in-use metalworking fluids. CMIT/MIT, CMIT/MIT/MCC, MIT, BIT, triazine, and PCMC microbicides were tested under controlled laboratory conditions to determine their efficacy at the maximum manufacturer's recommended dose rate (Table 2). The metalworking fluids were known to contain high levels of mycobacteria prior to dosing with biocides. Samples were then dosed with biocides, incubated with agitation at room temperature and viable mycobacteria counts determined after 48 hours by plating onto Middlebrook 7H10 medium, with Tween 80, glycerin, cyclohexamide, chloramphenicol, and gentamycin to suppress the growth of unwanted microorganisms.\nThe six metalworking fluid samples containing mycobacteria study from Example 7, were also tested using the same biocides with dosing at 50% of the maximum manufacturer's recommended rate (Table 2) under the same conditions. These metalworking fluids were known to contain high levels of mycobacteria prior to dosing with biocides. Samples were then dosed with biocides, incubated with agitation at room temperature and viable mycobacteria counts determined after 48 hours by plating onto Middlebrook 7H10 medium, with Tween 80, glycerin, cyclohexamide, chloramphenicol, and gentamycin to suppress the growth of unwanted microorganisms."}},
  "data": [
    {"smiles": "O=c1[nH]sc2ccccc12", "note": "[BIT, 1,2-benzisothiazolin-3-one, reference compound]", "values": [
      {"measurement": "Minimum Inhibitory Concentration", "setting": "Pseudomonas diminuta #99; pH 7.1, 30° C.", "value": 3.2, "unit": "ppm"},
      {"measurement": "Minimum Inhibitory Concentration", "setting": "Pseudomonas diminuta #99; pH 9.0, 30° C.", "value": 12.5, "unit": "ppm"},
      {"measurement": "Minimum Inhibitory Concentration", "setting": "Aspergillus niger #128; pH 7.1, 30° C.", "value": 50, "unit": "ppm"},
      {"measurement": "Minimum Inhibitory Concentration", "setting": "Aspergillus niger #128; pH 9.0, 30° C.", "value": 200, "unit": "ppm"},
      {"measurement": "Minimum Inhibitory Concentration", "setting": "Streptomyces sp. #130; pH 7.1, 30° C.", "value": "<1.6", "unit": "ppm"},
      {"measurement": "Minimum Inhibitory Concentration", "setting": "Streptomyces sp. #130; pH 9.0, 30° C.", "value": 3.2, "unit": "ppm"},
      {"measurement": "Percent Remaining at: pH 2", "setting": "[1]; 22° C., day 0", "value": 100, "unit": "%"},
      {"measurement": "Percent Remaining at: pH 6", "setting": "[1]; 22° C., day 0", "value": 100, "unit": "%"},
      {"measurement": "Percent Remaining at: pH 8", "setting": "[1]; 22° C., day 0", "value": 100, "unit": "%"},
      {"measurement": "Percent Remaining at: pH 10", "setting": "[1]; 22° C., day 0", "value": 100, "unit": "%"},
      {"measurement": "Percent Remaining at: pH 12", "setting": "[1]; 22° C., day 0", "value": 100, "unit": "%"},
      {"measurement": "Percent Remaining at: pH 2", "setting": "[1]; 22° C., day 21", "value": 97, "unit": "%"},
      {"measurement": "Percent Remaining at: pH 6", "setting": "[1]; 22° C., day 21", "value": 100, "unit": "%"},
      {"measurement": "Percent Remaining at: pH 8", "setting": "[1]; 22° C., day 21", "value": 98, "unit": "%"},
      {"measurement": "Percent Remaining at: pH 10", "setting": "[1]; 22° C., day 21", "value": 100, "unit": "%"},
      {"measurement": "Percent Remaining at: pH 12", "setting": "[1]; 22° C., day 21", "value": 69, "unit": "%"},
      {"measurement": "Percent Remaining at: pH 2", "setting": "[1]; 22° C., day 43", "value": 83, "unit": "%"},
      {"measurement": "Percent Remaining at: pH 6", "setting": "[1]; 22° C., day 43", "value": 86, "unit": "%"},
      {"measurement": "Percent Remaining at: pH 8", "setting": "[1]; 22° C., day 43", "value": 77, "unit": "%"},
      {"measurement": "Percent Remaining at: pH 10", "setting": "[1]; 22° C., day 43", "value": 85, "unit": "%"},
      {"measurement": "Percent Remaining at: pH 12", "setting": "[1]; 22° C., day 43", "value": 55, "unit": "%"},
      {"measurement": "Percent Remaining at: pH 2", "setting": "[1]; 22° C., day 88", "value": 95, "unit": "%"},
      {"measurement": "Percent Remaining at: pH 6", "setting": "[1]; 22° C., day 88", "value": 100, "unit": "%"},
      {"measurement": "Percent Remaining at: pH 8", "setting": "[1]; 22° C., day 88", "value": 84, "unit": "%"},
      {"measurement": "Percent Remaining at: pH 10", "setting": "[1]; 22° C., day 88", "value": 96, "unit": "%"},
      {"measurement": "Percent Remaining at: pH 12", "setting": "[1]; 22° C., day 88", "value": 63, "unit": "%"},
      {"measurement": "Percent Remaining at: pH 2", "setting": "[1]; 50° C., day 0", "value": 100, "unit": "%"},
      {"measurement": "Percent Remaining at: pH 6", "setting": "[1]; 50° C., day 0", "value": 100, "unit": "%"},
      {"measurement": "Percent Remaining at: pH 8", "setting": "[1]; 50° C., day 0", "value": 100, "unit": "%"},
      {"measurement": "Percent Remaining at: pH 10", "setting": "[1]; 50° C., day 0", "value": 100, "unit": "%"},
      {"measurement": "Percent Remaining at: pH 12", "setting": "[1]; 50° C., day 0", "value": 100, "unit": "%"},
      {"measurement": "Percent Remaining at: pH 2", "setting": "[1]; 50° C., day 21", "value": 95, "unit": "%"},
      {"measurement": "Percent Remaining at: pH 6", "setting": "[1]; 50° C., day 21", "value": 100, "unit": "%"},
      {"measurement": "Percent Remaining at: pH 8", "setting": "[1]; 50° C., day 21", "value": 94, "unit": "%"},
      {"measurement": "Percent Remaining at: pH 10", "setting": "[1]; 50° C., day 21", "value": 100, "unit": "%"},
      {"measurement": "Percent Remaining at: pH 12", "setting": "[1]; 50° C., day 21", "value": 68, "unit": "%"},
      {"measurement": "Percent Remaining at: pH 2", "setting": "[1]; 50° C., day 43", "value": 80, "unit": "%"},
      {"measurement": "Percent Remaining at: pH 6", "setting": "[1]; 50° C., day 43", "value": 88, "unit": "%"},
      {"measurement": "Percent Remaining at: pH 8", "setting": "[1]; 50° C., day 43", "value": 73, "unit": "%"},
      {"measurement": "Percent Remaining at: pH 10", "setting": "[1]; 50° C., day 43", "value": 81, "unit": "%"},
      {"measurement": "Percent Remaining at: pH 12", "setting": "[1]; 50° C., day 43", "value": 55, "unit": "%"},
      {"measurement": "Percent Remaining at: pH 2", "setting": "[1]; 50° C., day 90", "value": 93, "unit": "%"},
      {"measurement": "Percent Remaining at: pH 6", "setting": "[1]; 50° C., day 90", "value": 100, "unit": "%"},
      {"measurement": "Percent Remaining at: pH 8", "setting": "[1]; 50° C., day 90", "value": 89, "unit": "%"},
      {"measurement": "Percent Remaining at: pH 10", "setting": "[1]; 50° C., day 90", "value": 95, "unit": "%"},
      {"measurement": "Percent Remaining at: pH 12", "setting": "[1]; 50° C., day 90", "value": 68, "unit": "%"},
      {"measurement": "Log Reduction in Mycobacterial Counts versus Control (no biocide)", "setting": "[2]; Fluid 1, 48 hours, 50% of recommended maximum dose", "value": 0.00, "unit": "log"},
      {"measurement": "Log Reduction in Mycobacterial Counts versus Control (no biocide)", "setting": "[2]; Fluid 1, 48 hours, 100% of recommended maximum dose", "value": 0.00, "unit": "log"},
      {"measurement": "Log Reduction in Mycobacterial Counts versus Control (no biocide)", "setting": "[2]; Fluid 2, 48 hours, 50% of recommended maximum dose", "value": 0.00, "unit": "log"},
      {"measurement": "Log Reduction in Mycobacterial Counts versus Control (no biocide)", "setting": "[2]; Fluid 2, 48 hours, 100% of recommended maximum dose", "value": 0.00, "unit": "log"},
      {"measurement": "Log Reduction in Mycobacterial Counts versus Control (no biocide)", "setting": "[2]; Fluid 3, 48 hours, 50% of recommended maximum dose", "value": 0.00, "unit": "log"},
      {"measurement": "Log Reduction in Mycobacterial Counts versus Control (no biocide)", "setting": "[2]; Fluid 3, 48 hours, 100% of recommended maximum dose", "value": 0.60, "unit": "log"},
      {"measurement": "Log Reduction in Mycobacterial Counts versus Control (no biocide)", "setting": "[2]; Fluid 4, 48 hours, 50% of recommended maximum dose", "value": 0.00, "unit": "log"},
      {"measurement": "Log Reduction in Mycobacterial Counts versus Control (no biocide)", "setting": "[2]; Fluid 4, 48 hours, 100% of recommended maximum dose", "value": 0.00, "unit": "log"},
      {"measurement": "Log Reduction in Mycobacterial Counts versus Control (no biocide)", "setting": "[2]; Fluid 5, 48 hours, 50% of recommended maximum dose", "value": 0.00, "unit": "log"},
      {"measurement": "Log Reduction in Mycobacterial Counts versus Control (no biocide)", "setting": "[2]; Fluid 5, 48 hours, 100% of recommended maximum dose", "value": 0.06, "unit": "log"},
      {"measurement": "Log Reduction in Mycobacterial Counts versus Control (no biocide)", "setting": "[2]; Fluid 6, 48 hours, 50% of recommended maximum dose", "value": 0.00, "unit": "log"},
      {"measurement": "Log Reduction in Mycobacterial Counts versus Control (no biocide)", "setting": "[2]; Fluid 6, 48 hours, 100% of recommended maximum dose", "value": 0.00, "unit": "log"},
      {"measurement": "No. of Fluids with ≧99% Kill (2-log reduction)", "setting": "[2]; 50% of recommended maximum dose", "value": 0},
      {"measurement": "No. of Fluids with ≧99% Kill (2-log reduction)", "setting": "[2]; 100% of recommended maximum dose", "value": 0}
    ]}
  ]
}
